# Data taken from patent US4388311A, “Method for the induction of menses” (G. D. Searle & Co., priority 1982, dated 1983).
# Values joined by “and” are separate entries in the source; they are usually repeats but may differ in a detail not shown here. Equal values may be shown once.
# Tests used:
# Assay type in all cases: in vivo, rat
# pregnancy in rats [1] = experiment: Pregnancy termination in rats, compounds administered intragastrically on day 10 of pregnancy (Table 3); settings: for Serum Progesterone (Percent Control) / Serum Progesterone ng/ml + S.E.: serum day 11, 24 hours after injection; for Adrenal Wt. mg + SE / Fetal Viability: Normal Fetuses/Implantation Sites / Fetal Viability: Normal Fetuses/Implantation Sites (Percent) / Number of Rats Pregnant/Number of Rats Treated / Number of Rats Pregnant/Number of Rats Treated (Percent): autopsy day 14
# Procedure: (§1) The following tables list the results for a compound of Formula IV as compared with a control of previously known 2α-cyano-17β-hydroxy-3-oxo-4,4,17α-trimethylandrost-5-end(Cyanoketone) for termination of pregnancy.
# (§2) ^1 Compounds were administered intragastrically once daily on days 10
# of pregnancy in a vehicle consisting of PEG400, propylene glycol and 100
# percent ethanol (50:40:10, v:v:v). Serum for progesterone determination
# was drawn on day 11 of pregnancy, 24 hours after the initial injection of
# (§3) compound. The animals were autopsied on day 14 of pregnancy.
# pregnancy in rats [2] = experiment: Pregnancy termination in rats, compounds administered intragastrically for four days (Table 1); settings: for Serum Progesterone (Percent Control) / Serum Progesterone ng/ml + S.E.: serum day 11, 24 hours after initial injection; for Adrenal Wt. mg + SE / Fetal Viability: Normal Fetuses/Implantation Sites / Fetal Viability: Normal Fetuses/Implantation Sites (Percent) / Number of Rats Pregnant/Number of Rats Treated / Number of Rats Pregnant/Number of Rats Treated (Percent): autopsy day 14
# Procedure: as §1, §2
# through 13 of pregnancy in a vehicle consisting of PEG400, propylene
# glycol and 100 percent ethanol (50:40:10, v:v:v). Serum for progesterone
# determination was drawn on day 11 of pregnancy, 24 hours after the initia
# injection of compound. The animals were autopsied on day 14 of pregnancy.
# pregnancy in rats [3] = experiment: Termination of pregnancy in rats, compounds administered subcutaneously (Table 2); settings: for Serum Progesterone (Percent Control) / Serum Progesterone ng/ml + S.E.: serum day 11, 24 hours after initial injection
# Procedure: as §1
# ^1 Compounds given subcutaneously in corn oil vehicle once daily on
# days 10 through 13 of pregnancy. Serum for progesterone determination was
# drawn on day 11 of pregnancy, 24 hours after the initial injection of
# as §3
# ^2 Serum progesterone values determined by RIA at Interlab Associates
# [4] = 4 mg/kg intragastrically on day 10 of pregnancy
# [5] = 4 mg/kg intragastrically once on day 10 of pregnancy
# [6] = 8 mg/kg intragastrically on day 10 of pregnancy
# [7] = 8 mg/kg intragastrically once on day 10 of pregnancy
# [8] = 16 mg/kg intragastrically on day 10 of pregnancy
# [9] = 16 mg/kg intragastrically once on day 10 of pregnancy
# [10] = 2 mg/kg/day intragastrically days 10-13 of pregnancy
# [11] = 2 mg/kg/day intragastrically once daily days 10-13 of pregnancy
# [12] = 4 mg/kg/day intragastrically days 10-13 of pregnancy
# [13] = 4 mg/kg/day intragastrically once daily days 10-13 of pregnancy
# [14] = 8 mg/kg/day intragastrically days 10-13 of pregnancy
# [15] = 8 mg/kg/day intragastrically once daily days 10-13 of pregnancy
# [16] = 16 mg/kg/day intragastrically days 10-13 of pregnancy
# [17] = 16 mg/kg/day intragastrically once daily days 10-13 of pregnancy
# [18] = 2 mg/kg/day subcutaneously days 10-13 of pregnancy
# [19] = 2 mg/kg/day subcutaneously in corn oil once daily days 10-13 of pregnancy, autopsy day 14
# [20] = 4 mg/kg/day subcutaneously days 10-13 of pregnancy
# [21] = 4 mg/kg/day subcutaneously in corn oil once daily days 10-13 of pregnancy, autopsy day 14
# [22] = 8 mg/kg/day subcutaneously days 10-13 of pregnancy
# [23] = 8 mg/kg/day subcutaneously in corn oil once daily days 10-13 of pregnancy, autopsy day 14
# [24] = 16 mg/kg/day subcutaneously days 10-13 of pregnancy, 16 mg/kg/day
# [25] = 16 mg/kg/day subcutaneously in corn oil once daily days 10-13 of pregnancy, autopsy day 14
# [26] = 16 mg/kg/day subcutaneously in corn oil once daily days 10-13 of pregnancy, autopsy day 14, 16 mg/kg/day
smiles,measurement,setting,value
"CC(=O)OC1=C(C#N)C[C@@]2(C)C(=CC[C@@H]3[C@@H]2CC[C@@]2(C)[C@H]3CC[C@]2(C)O)C1(C)C [3-(acetyloxy)-17β-hydroxy-4,4,17α-trimethylandrosta-2,5-diene-2-carbonitrile]",Serum Progesterone (Percent Control),pregnancy in rats [1]; [4],33 Percent Control
same,Serum Progesterone ng/ml + S.E.,pregnancy in rats [1]; [4],19.0 + 7.4 ng/ml
same,Adrenal Wt. mg + SE,pregnancy in rats [1]; [5],60.0 + 4.2 mg
same,Fetal Viability: Normal Fetuses/Implantation Sites,pregnancy in rats [1]; [5],6/82
same,Fetal Viability: Normal Fetuses/Implantation Sites (Percent),pregnancy in rats [1]; [5],7%
same,Number of Rats Pregnant/Number of Rats Treated,pregnancy in rats [1]; [5],1/8
same,Number of Rats Pregnant/Number of Rats Treated (Percent),pregnancy in rats [1]; [5],13%
same,Serum Progesterone (Percent Control),pregnancy in rats [1]; [6],18 Percent Control
same,Serum Progesterone ng/ml + S.E.,pregnancy in rats [1]; [6],10.4 + 2.5 ng/ml
same,Adrenal Wt. mg + SE,pregnancy in rats [1]; [7],62.0 + 2.5 mg
same,Fetal Viability: Normal Fetuses/Implantation Sites,pregnancy in rats [1]; [7],0/81
same,Fetal Viability: Normal Fetuses/Implantation Sites (Percent),pregnancy in rats [1]; [7],0%
same,Number of Rats Pregnant/Number of Rats Treated,pregnancy in rats [1]; [7],0/7
same,Number of Rats Pregnant/Number of Rats Treated (Percent),pregnancy in rats [1]; [7],0%
same,Serum Progesterone (Percent Control),pregnancy in rats [1]; [8],24 Percent Control
same,Serum Progesterone ng/ml + S.E.,pregnancy in rats [1]; [8],13.8 + 1.7 ng/ml
same,Adrenal Wt. mg + SE,pregnancy in rats [1]; [9],56.8 + 2.0 mg
same,Fetal Viability: Normal Fetuses/Implantation Sites,pregnancy in rats [1]; [9],0/60
same,Fetal Viability: Normal Fetuses/Implantation Sites (Percent),pregnancy in rats [1]; [9],0%
same,Number of Rats Pregnant/Number of Rats Treated,pregnancy in rats [1]; [9],0/6
same,Number of Rats Pregnant/Number of Rats Treated (Percent),pregnancy in rats [1]; [9],0%
same,Serum Progesterone (Percent Control),pregnancy in rats [2]; [10],109 Percent Control
same,Serum Progesterone ng/ml + S.E.,pregnancy in rats [2]; [10],49.6 + 6.2 ng/ml
same,Adrenal Wt. mg + SE,pregnancy in rats [2]; [11],68.9 + 2.2 mg
same,Fetal Viability: Normal Fetuses/Implantation Sites,pregnancy in rats [2]; [11],60/89
same,Fetal Viability: Normal Fetuses/Implantation Sites (Percent),pregnancy in rats [2]; [11],67%
same,Number of Rats Pregnant/Number of Rats Treated,pregnancy in rats [2]; [11],7/9
same,Number of Rats Pregnant/Number of Rats Treated (Percent),pregnancy in rats [2]; [11],78%
same,Serum Progesterone (Percent Control),pregnancy in rats [2]; [12],29 Percent Control
same,Serum Progesterone ng/ml + S.E.,pregnancy in rats [2]; [12],13.4 + 3.9 ng/ml
same,Adrenal Wt. mg + SE,pregnancy in rats [2]; [13],68.6 + 2.3 mg
same,Fetal Viability: Normal Fetuses/Implantation Sites,pregnancy in rats [2]; [13],0/112
same,Fetal Viability: Normal Fetuses/Implantation Sites (Percent),pregnancy in rats [2]; [13],0%
same,Number of Rats Pregnant/Number of Rats Treated,pregnancy in rats [2]; [13],0/10
same,Number of Rats Pregnant/Number of Rats Treated (Percent),pregnancy in rats [2]; [13],0%
same,Serum Progesterone (Percent Control),pregnancy in rats [2]; [14],40 Percent Control
same,Serum Progesterone ng/ml + S.E.,pregnancy in rats [2]; [14],18.1 + 2.5 ng/ml
same,Adrenal Wt. mg + SE,pregnancy in rats [2]; [15],70.3 + 3.1 mg
same,Fetal Viability: Normal Fetuses/Implantation Sites,pregnancy in rats [2]; [15],0/95
same,Fetal Viability: Normal Fetuses/Implantation Sites (Percent),pregnancy in rats [2]; [15],0%
same,Number of Rats Pregnant/Number of Rats Treated,pregnancy in rats [2]; [15],0/10
same,Number of Rats Pregnant/Number of Rats Treated (Percent),pregnancy in rats [2]; [15],0%
same,Serum Progesterone (Percent Control),pregnancy in rats [2]; [16],29 Percent Control
same,Serum Progesterone ng/ml + S.E.,pregnancy in rats [2]; [16],13.4 + 2.0 ng/ml
same,Adrenal Wt. mg + SE,pregnancy in rats [2]; [17],72.1 + 2.1 mg
same,Fetal Viability: Normal Fetuses/Implantation Sites,pregnancy in rats [2]; [17],0/111
same,Fetal Viability: Normal Fetuses/Implantation Sites (Percent),pregnancy in rats [2]; [17],0%
same,Number of Rats Pregnant/Number of Rats Treated,pregnancy in rats [2]; [17],0/10
same,Number of Rats Pregnant/Number of Rats Treated (Percent),pregnancy in rats [2]; [17],0%
same,Serum Progesterone (Percent Control),pregnancy in rats [3]; [18],91 Percent Control
same,Serum Progesterone ng/ml + S.E.,pregnancy in rats [3]; [18],52.3 + 2.8 ng/ml
same,Adrenal Wt. mg + SE,pregnancy in rats [3]; [19],81.2 + 3.2 mg
same,Fetal Viability: Normal Fetuses/Implantation Sites,pregnancy in rats [3]; [19],101/109
same,Fetal Viability: Normal Fetuses/Implantation Sites (Percent),pregnancy in rats [3]; [19],93%
same,Number of Rats Pregnant/Number of Rats Treated,pregnancy in rats [3]; [19],9/9
same,Number of Rats Pregnant/Number of Rats Treated (Percent),pregnancy in rats [3]; [19],100%
same,Serum Progesterone (Percent Control),pregnancy in rats [3]; [20],32 Percent Control
same,Serum Progesterone ng/ml + S.E.,pregnancy in rats [3]; [20],14.2 + 4.9 ng/ml
same,Adrenal Wt. mg + SE,pregnancy in rats [3]; [21],72.9 + 3.8 mg
same,Fetal Viability: Normal Fetuses/Implantation Sites,pregnancy in rats [3]; [21],21/72
same,Fetal Viability: Normal Fetuses/Implantation Sites (Percent),pregnancy in rats [3]; [21],29%
same,Number of Rats Pregnant/Number of Rats Treated,pregnancy in rats [3]; [21],2/7
same,Number of Rats Pregnant/Number of Rats Treated (Percent),pregnancy in rats [3]; [21],29%
same,Serum Progesterone (Percent Control),pregnancy in rats [3]; [22],29 Percent Control
same,Serum Progesterone ng/ml + S.E.,pregnancy in rats [3]; [22],12.7 + 1.4 ng/ml
same,Adrenal Wt. mg + SE,pregnancy in rats [3]; [23],83.9 + 2.0 mg
same,Fetal Viability: Normal Fetuses/Implantation Sites,pregnancy in rats [3]; [23],0/112
same,Fetal Viability: Normal Fetuses/Implantation Sites (Percent),pregnancy in rats [3]; [23],0%
same,Number of Rats Pregnant/Number of Rats Treated,pregnancy in rats [3]; [23],0/9
same,Number of Rats Pregnant/Number of Rats Treated (Percent),pregnancy in rats [3]; [23],0%
same,Serum Progesterone (Percent Control),pregnancy in rats [3]; [24],26 Percent Control and 36 Percent Control
same,Serum Progesterone ng/ml + S.E.,pregnancy in rats [3]; [24],13.1 + 1.4 ng/ml and 15.7 + 2.8 ng/ml
same,Fetal Viability: Normal Fetuses/Implantation Sites (Percent),pregnancy in rats [3]; [25],0%
same,Number of Rats Pregnant/Number of Rats Treated,pregnancy in rats [3]; [25],0/8
same,Number of Rats Pregnant/Number of Rats Treated (Percent),pregnancy in rats [3]; [25],0%
same,Adrenal Wt. mg + SE,pregnancy in rats [3]; [26],93.8 + 4.9 mg and 98.3 + 2.8 mg
same,Fetal Viability: Normal Fetuses/Implantation Sites,pregnancy in rats [3]; [26],0/98 and 0/84
